Source: article PMC5947527 (Chemical Science, 2015)
Non-standard residues stand in square brackets, D forms with d. Residues, ends and D or L forms follow the SMILES beside them. *: point of attachment. NBD = O=[N+]([O-])c1ccc(*)c2nonc12; Nle = CCCC[C@H](N)C(=O)O; Ahx = NCCCCCC(=O)O

Experiment: Stability in ARDS bronchoalveolar lavage fluid (MALDI-TOF MS)
Type: in vitro ADME, human
Conditions: for stability in ARDS BALF: human ARDS BALF pooled from three patients vs PBS, 5 and 30 min
Source text: To determine the ability of UBI-3 to image bacteria in the continued presence of a complex inflammatory environment, bacteria were labelled with UBI-3 in the presence of broncho-alveolar lavage fluid (BALF) retrieved from ventilated ICU patients with Acute Respiratory Distress Syndrome (ARDS). ARDS BALF was utilised as ARDS is a severe life threatening pulmonary syndrome, characterized by a massive proteolytic and oxidative inflammatory environment within the distal alveolar region.[14] […] To design out susceptible amino acid cleavage points, a number of modifications were made (Table 1) and the functional consequences assessed. The chemical approaches pursued to improve resistance to degradation included replacing amino acids at the cleavage positions with non-natural amino acids such as N-methyl or D-amino acids,[15] and cyclisation of the peptide,[16] which could have the added benefit of enhancing affinity towards bacterial membrane.[17]
The Arg–Arg bonds were identified as the prominent position of degradation (Fig. 5) and Compounds UBI-4–9 (Table 1) were synthesised with a variety of substitutions around the degradation sites. The susceptible peptide bonds at P1–P2 and P7–P8 were blocked using N-MeArg (UBI-4), and to further mask these positions, a long polyethylene glycol (PEG) chain and/or a D-amino acid were positioned at the carboxylic and/or amino termini (UBI-5–7).
We hypothesized that cyclisation of the sequence would allow for greater stability and also improve bacterial affinity and therefore cyclic variants of UBI-3 were synthesized (UBI-10 and UBI-11), which were both found to be stable in BALF for 5 minutes (Fig. 7 and S3 ESI ^†). […] However, these studies also highlighted the degradation of UBI-10 at 10 minutes, guiding the temporal constraints of Smartprobe delivery and optical imaging.
Fig. 7 UBI-10 remains stable in ARDS BALF at 5 minutes. (A) Structure of UBI-10 with breakdown products in ARDS BALF. […] TEXT PRINTED IN THE PICTURE: UBI-10: Molecular Weight: 2118.41 | Fragment A: Molecular Weight: 1923.18 | Fragment B: Molecular Weight: 1980.23 DOUBTS OF THE COPYIST ABOUT THIS PICTURE: UBI-10, Molecular Weight: very small print, 2118.41 is the best reading; the digits 8 and 4 are uncertain / Fragment A, Molecular Weight: very small print, 1923.18 is the best reading; the digits 9, 3 and 8 are uncertain / Fragment B, Molecular Weight: very small print, 1980.23 is the best reading; the digits 9, 8 and 3 are uncertain […]
Supplementary Information
A Labelled-Ubiquicidin Antimicrobial Peptide for Immediate In Situ Optical Detection of Live Bacteria in Human Alveolar Lung Tissue
Ahsan R Akram, Nicolaos Avlonitis, Annamaria Lilienkampf, Ana M Perez-Lopez, Neil McDonald, Sunay V Chankeshwara, Emma Scholefield, Christopher Haslett, Mark Bradley & Kevin Dhaliwal.
Figure S1: MALDI-TOF MS spectra for a stability study of UBI-3 in PBS and in ARDS BALF […]
Figure S2. MALDI-TOF MS spectra of modified analogues UBI-4 to UBI-9 in Phosphate Buffered Saline and ARDS BALF over a period of 5 and 30min.
Figure S3: MALDI-TOF MS spectra of UBI-11 in Phosphate Buffered Saline vs ARDS BALF […]
Figure S4. Quantified fluorescence of confocal microscopy images of the compounds UBI-3, UBI-5 and UBI-10 on three bacteria and fluorescence retention following a PBS wash.
Figure S5: Fibered confocal fluorescence microscopy imaging of human lung and Calcein AM stained Methicillin sensitive S. aureus.
Experimental Details including Tables M1-4, Figure M1 and HPLC Chromatograms.
(also on this page, place not known: Electronic Supplementary Material (ESI) for Chemical Science. This journal is © The Royal Society of Chemistry 2015)
(1 picture or pasted object on this page, not shown here) […]
BALF Retrieval: Bronchoalveolar lavage was performed in the Intensive Care Unit (ICU), as previously described. S5 Pooled samples from three patients were used for stability assays. […]
Exposure to 488 nm light was limited to 5% […]

Compound: CCCC[C@H](NC(=O)[C@H](CCCNC(=N)N)NC(=O)[C@H](CCCNC(=N)N)NC(=O)[C@H](CCCCN)NC(=O)[C@H](C)NC(=O)[C@H](CCCNC(=N)N)NC(=O)CNC(=O)[C@@H](NC(=O)CCCCCNc1ccc([N+](=O)[O-])c2nonc12)[C@@H](C)O)C(=O)N[C@@H](CCC(N)=O)C(=O)N[C@@H](Cc1ccc(O)cc1)C(=O)N[C@@H](CC(N)=O)C(=O)N[C@@H](CCCNC(=N)N)C(=O)N[C@@H](CCCNC(=N)N)C(N)=O [UBI-3] ({NBD-Ahx}-TGRAKRR[Nle]QYNRR-NH2)
- stability in ARDS BALF (MALDI-TOF MS): Unstable in ARDS BALF
- time of degradation of the peptide in ARDS BALF (human ARDS BALF, MALDI-TOF MS): < 5 min

Compound: CCCC[C@@H]1NC(=O)[C@H](CCCNC(=N)N)NC(=O)[C@H](CCCNC(=N)N)NC(=O)[C@H](CCCCN)NC(=O)[C@H](C)NC(=O)[C@H](CCCNC(=N)N)NC(=O)CNC(=O)[C@H]([C@@H](C)O)NC(=O)[C@@H](NC(=O)CCCCCNc2ccc([N+](=O)[O-])c3nonc23)CCCCNC(=O)CNC(=O)[C@H](CCCNC(=N)N)NC(=O)[C@H](CCCNC(=N)N)NC(=O)[C@H](CC(N)=O)NC(=O)[C@H](Cc2ccc(O)cc2)NC(=O)[C@H](CCC(N)=O)NC1=O [UBI-10]
- stability in ARDS BALF (MALDI-TOF MS): Improved stability in ARDS BALF
- time stable in ARDS BALF (human ARDS BALF, MALDI-TOF MS): 5 min
- time at which degradation products form in ARDS BALF (human ARDS BALF, MALDI-TOF time course): 10 min
